Data on 5 compounds can be found in US7915257B2, “Use of triazinetrione sulfones for combating coccidiosis” (Bayer Animal Health GmbH, priority 2000, dated 2011).

The test system of data set [1] is Isospora suis. The conditions noted are these: experimentally infected piglets; cited from earlier work.
The conditions of data set [2]: in vivo. The method, then: (§1) The following toxicity data were determined in accordance with OECD/GLP guidelines, in particular OECD 414, 401 and 408. The investigations of the teratogenicity of the compounds was carried out in accordance with the US guidelines—“Teratogenicity study”, Guidelines for Registering Pesticides in the U.S.A., U.S. Environmental Protection Agency, Hazard Evaluation: Human and 10 Domestic Animals. U.S. Federal Register, Vol. 43, paragraph 163.83-3, adopted November 1982.

Data set [3] concerns Eimeria spp. (principal species E. ovinoidalis and E. crandallis). Put plainly: Field trial, treatment of natural coccidiosis infections of grazing lambs. In kind it is in vivo, Sheep. The conditions noted are these: 5% w/v suspension as drench on day 7; toltrazuril 20 mg/kg, ponazuril 10 and 20 mg/kg; low infection pressure. The method, then:
B. Field Trial of the Efficacy of Ponazuril Compared with Toltrazuril for the Treatment of Natural Infections of Grazing Lambs with Coccidiosis:
The aim of the trials was to compare toltrazuril and ponazuril for efficacy on natural infections with pathogens of the Eimeria family.
The active ingredients were compared in three consecutive experiments: • Experiment 1: untreated control—toltrazuril 20 mg/kg—ponazuril 20 mg/kg • Experiment 2: untreated control—ponazuril 20 mg/kg • Experiment 3: untreated control—toltrazuril 20 mg/kg—ponazuril 10 mg/kg.
The oocyst excretion and the consistency of the faeces were used as main parameters. The weight of the stock was likewise checked occasionally.

Data set [4] can be described thus: Acute oral toxicity (LD50 rat, oral). In kind it is in vivo. The conditions noted are these: for NOEL: LD50 rat, oral investigation; for LD50 rat, oral: printed in column Dosage (NOEL). As to the method:
as §1

The subject of data set [5] is Isospora suis. The note with it: coccidiosis (Isospora suis) in pigs; cited from earlier work.
Data set [6] relates to Eimeria tenella, E. maxima and E. acervulina. The experiment in a line: Efficacy of ponazuril on artificially induced mixed infection of chickens, cage housing. In kind it is in vivo. As to the method:
Groups each of 44 birds (4 replicates per treatment of 11 birds in each case) were formed and, on day 14, infected with sporulated oocysts. Ponazuril was administered each day on day 10-24 or 17-24. Three dosages in the feed were used in both treatment periods: 5 ppm, 10 ppm and 20 ppm. The result of the treatment was determined by various clinical and parasitological parameters, including the mortality caused by the coccidiosis and the oocyst excretion in the faeces.

Like-named read-outs stand apart in the source and are kept apart here.

As for `CCCc1ncc(C[n+]2ccccc2C)c(N)n1` [amprolium], the prevention of disease result in data set [1] is reported as “not possible to prevent disease”.
For `Cc1cc(-n2c(=O)[nH]c(=O)n(C)c2=O)ccc1Oc1ccc(SC(F)(F)F)cc1` [toltrazuril], the NOEL is 1.5 mg/kg of body weight in data set [2] (dog); 2.0 mg/kg of body weight in data set [2] (rabbit); 1.0 mg/kg of body weight in data set [2] (rat); 1.1 mg/kg of body weight in data set [2] (rat, 90 days); <1000 mg/kg of body weight in data set [4]. In data set [3], the “efficacy (oocyst excretion, consistency of the faeces)” value is on record as “completely effective”. Further, in data set [4], the “LD50 rat, oral” value is 1600-5000 mg/kg mg/kg of body weight. In data set [5], the “suitability for treating coccidiosis” value is on record as “suitable for treating coccidiosis”.
Consider `O=C1OCCN1/N=C/c1ccc([N+](=O)[O-])o1` [furazolidone], for which the prevention of disease entry in data set [1] is on record as “not possible to prevent disease”.
As for `Cc1cc(-n2c(=O)[nH]c(=O)n(C)c2=O)ccc1Oc1ccc(S(=O)(=O)C(F)(F)F)cc1` [ponazuril], the “control of the infection” value in data set [6] (5, 10 and 20 ppm in the feed, daily on day 10-24 or 17-24, infection day 14) is “possible to control the infection with all dosages and treatment schedules”. Further, the “parasitological findings (oocyst excretion and number of lesions)” value in data set [6] (early start of the treatment) is given as “reduced the parasitological findings significantly”. Also, the “technical parameters (body weight gain and feed conversion)” value in data set [6] (early start of the treatment) was “improved the technical parameters”. Moreover, the “dosage with best results” value in data set [6] (highest dosage, 20 mg of ponazuril in the feed (approx. 3.5 mg/kg of body weight and day)) is reported as “best results”. Besides, the NOEL is listed as 8.3 mg/kg of body weight in data set [2] (dog); 30 mg/kg of body weight in data set [2] (rabbit); 90 mg/kg of body weight in data set [2] (rat); 11.2 mg/kg of body weight in data set [2] (rat, 90 days); 5000 mg/kg of body weight in data set [4]. In addition, the “efficacy (oocyst excretion, consistency of the faeces)” value in data set [3] was “completely effective”. The “LD50 rat, oral” value in data set [4] is >5000 mg/kg of body weight.
As for `CC[C@@]1([C@@H]2O[C@@H]([C@H]3O[C@@](O)(CO)[C@H](C)C[C@@H]3C)C[C@@H]2C)CC[C@H]([C@]2(C)CC[C@]3(C[C@H](O)[C@@H](C)[C@@H]([C@@H](C)[C@@H](OC)[C@H](C)C(=O)O)O3)O2)O1` [monensin], in data set [1], the prevention of disease result was “not possible to prevent disease”.
